Measurements from PubChem BioAssay (NCI).
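Five concentrations, 48 hours, 96-well plates. TGI is the concentration that stops growth completely.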

Tests used:
Experiment in all cases: NCI tumour cell line growth inhibition, 48 h
[1] = tested on: A549 NSCLC
[2] = tested on: CAKI-1 renal
[3] = tested on: DLD-1 colon
[4] = tested on: DMS 273 small cell lung
[5] = tested on: EKVX NSCLC
[6] = tested on: HCT-15 colon
[7] = tested on: HL-60(TB) leukemia
[8] = tested on: HOP-18 NSCLC
[9] = tested on: HT29 colon
[10] = tested on: IGROV1 ovarian
[11] = tested on: K-562 leukemia
[12] = tested on: KM12 colon
[13] = tested on: KM20L2 colon
[14] = tested on: M19-MEL melanoma
[15] = tested on: NCI-H226 lung
[16] = tested on: NCI-H522 lung
[17] = tested on: OVCAR-3 ovarian
[18] = tested on: OVCAR-4 ovarian
[19] = tested on: OVCAR-5 ovarian
[20] = tested on: SF-268 CNS
[21] = tested on: SF-295 CNS
[22] = tested on: SK-MEL-2 melanoma
[23] = tested on: SK-OV-3 ovarian
[24] = tested on: SNB-75 CNS
[25] = tested on: UACC-257 melanoma
[26] = tested on: UO-31 renal
[27] = tested on: 786-0 renal
[28] = tested on: A498 renal
[29] = tested on: ACHN renal
[30] = tested on: CCRF-CEM leukemia
[31] = tested on: COLO 205 colon
[32] = tested on: DMS 114 small cell lung
[33] = tested on: HCT-116 colon
[34] = tested on: HOP-62 NSCLC
[35] = tested on: HOP-92 NSCLC
[36] = tested on: LOX IMVI melanoma
[37] = tested on: LXFL 529 NSCLC
[38] = tested on: M14 melanoma
[39] = tested on: MOLT-4 leukemia
[40] = tested on: NCI-H23 lung
[41] = tested on: NCI-H460 lung
[42] = tested on: OVCAR-8 ovarian
[43] = tested on: RPMI-8226 leukemia
[44] = tested on: RXF 393 renal
[45] = tested on: SF-539 CNS
[46] = tested on: SK-MEL-5 melanoma
[47] = tested on: SN12C renal
[48] = tested on: SW-620 colon
[49] = tested on: TK-10 renal
[50] = tested on: U251 CNS
[51] = tested on: UACC-62 melanoma
[52] = tested on: XF 498 CNS
[53] = tested on: HCC-2998 colon
[54] = tested on: MALME-3M melanoma
[55] = tested on: SK-MEL-28 melanoma
[56] = tested on: SNB-19 CNS
[57] = tested on: SNB-78 CNS
[58] = tested on: BT-549 breast
[59] = tested on: DU-145 prostate
[60] = tested on: HS 578T breast
[61] = tested on: MDA-MB-435
[62] = tested on: PC-3 prostate
[63] = tested on: T-47D breast

SMILES: COc1ccc2nc3cc(Cl)ccc3c(NCCCN(CCCl)CCCl)c2c1
- TGI [1]: 664 nM
- TGI [2]: 123 nM
- TGI [3]: > 100000 nM
- TGI [4]: 1030 nM
- TGI [5]: 539 nM
- TGI [6]: 1130 nM
- TGI [7]: 13.5 nM
- TGI [8]: 9400 nM
- TGI [9]: 333 nM
- TGI [10]: 479 nM
- TGI [11]: 154 nM
- TGI [12]: 395 nM
- TGI [13]: > 100000 nM
- TGI [14]: 846 nM
- TGI [15]: 311 nM
- TGI [16]: 163 nM
- TGI [17]: 295 nM
- TGI [18]: 232 nM
- TGI [19]: 310 nM
- TGI [20]: 300 nM
- TGI [21]: 505 nM
- TGI [22]: 437 nM
- TGI [23]: 1120 nM
- TGI [24]: 407 nM
- TGI [25]: > 100000 nM
- TGI [26]: 1020 nM

SMILES: Cn1nc(-c2ccccc2)c(C(=O)/C=C/c2ccccc2)c(N2CCOCC2)c1=O
- TGI [27]: 32400 nM
- TGI [28]: 35000 nM
- TGI [1]: > 100000 nM
- TGI [29]: 39900 nM
- TGI [30]: 57200 nM
- TGI [31]: 35900 nM
- TGI [3]: > 100000 nM
- TGI [32]: 38200 nM
- TGI [4]: 51400 nM
- TGI [33]: 32800 nM
- TGI [6]: 57000 nM
- TGI [7]: 32300 nM
- TGI [8]: 89700 nM
- TGI [34]: > 100000 nM
- TGI [35]: 27800 nM
- TGI [9]: 33000 nM
- TGI [10]: 52900 nM
- TGI [11]: 56000 nM
- TGI [13]: 42900 nM
- TGI [36]: 60500 nM
- TGI [37]: 34000 nM
- TGI [38]: 52600 nM
- TGI [14]: 61200 nM
- TGI [39]: 49400 nM
- TGI [40]: 45100 nM
- TGI [41]: 54700 nM
- TGI [16]: 29900 nM
- TGI [42]: > 100000 nM
- TGI [43]: 59100 nM
- TGI [44]: 25900 nM
- TGI [20]: 32600 nM
- TGI [45]: 39500 nM
- TGI [46]: 37600 nM
- TGI [23]: 81000 nM
- TGI [47]: 59200 nM
- TGI [48]: > 100000 nM
- TGI [49]: 89400 nM
- TGI [50]: 29400 nM
- TGI [51]: 52900 nM
- TGI [26]: 28100 nM
- TGI [52]: 30700 nM

SMILES: CC(=O)Oc1ccc(O)c(O)c1C/C=C(\C)CC/C=C(\C)CC/C=C(\C)CCC=C(C)C
- TGI [27]: 2830 nM
- TGI [1]: 1550 nM
- TGI [29]: 823 nM
- TGI [2]: 8030 nM
- TGI [31]: 341 nM
- TGI [3]: 1410 nM
- TGI [32]: 1290 nM
- TGI [4]: 817 nM
- TGI [5]: 3810 nM
- TGI [53]: 2260 nM
- TGI [7]: 4110 nM
- TGI [8]: 879 nM
- TGI [34]: 2810 nM
- TGI [35]: 886 nM
- TGI [9]: 1180 nM
- TGI [12]: 11500 nM
- TGI [13]: 3740 nM
- TGI [36]: 694 nM
- TGI [37]: 1050 nM
- TGI [38]: 4980 nM
- TGI [14]: 1810 nM
- TGI [54]: 782 nM
- TGI [15]: 2270 nM
- TGI [40]: 1470 nM
- TGI [41]: 1310 nM
- TGI [16]: 6840 nM
- TGI [18]: 1720 nM
- TGI [19]: 1890 nM
- TGI [42]: 1790 nM
- TGI [44]: 2470 nM
- TGI [20]: 2180 nM
- TGI [21]: 4270 nM
- TGI [45]: 1620 nM
- TGI [22]: 2900 nM
- TGI [55]: 2190 nM
- TGI [47]: 868 nM
- TGI [56]: 2800 nM
- TGI [24]: 1920 nM
- TGI [57]: 1340 nM
- TGI [48]: 1210 nM
- TGI [49]: 2600 nM
- TGI [50]: 1280 nM
- TGI [25]: 2260 nM
- TGI [26]: 2740 nM
- TGI [52]: 818 nM

SMILES: OCCCCCCOc1ccc(-c2cc(-c3ccccn3)nc(-c3ccccn3)c2)cc1
- TGI [27]: 551 nM
- TGI [28]: 5770 nM
- TGI [1]: 6420 nM
- TGI [29]: 5220 nM
- TGI [58]: 9210 nM
- TGI [2]: 1660 nM
- TGI [30]: 1080 nM
- TGI [31]: 8090 nM
- TGI [3]: 2990 nM
- TGI [32]: 1480 nM
- TGI [4]: 978 nM
- TGI [59]: 7830 nM
- TGI [5]: 4970 nM
- TGI [53]: 16300 nM
- TGI [33]: 1480 nM
- TGI [6]: > 33100 nM
- TGI [7]: 514 nM
- TGI [8]: 3990 nM
- TGI [34]: 1660 nM
- TGI [35]: 14800 nM
- TGI [60]: 4610 nM
- TGI [9]: 11800 nM
- TGI [10]: 2700 nM
- TGI [11]: 3780 nM
- TGI [12]: 2420 nM
- TGI [36]: 1020 nM
- TGI [37]: 4970 nM
- TGI [38]: 4300 nM
- TGI [14]: 1250 nM
- TGI [54]: 9380 nM
- TGI [61]: > 100000 nM
- TGI [39]: 2530 nM
- TGI [15]: 1060 nM
- TGI [40]: 9050 nM
- TGI [41]: 1170 nM
- TGI [16]: 3320 nM
- TGI [17]: 1320 nM
- TGI [18]: 4810 nM
- TGI [19]: 4140 nM
- TGI [42]: 1700 nM
- TGI [62]: 5310 nM
- TGI [43]: 1880 nM
- TGI [44]: 853 nM
- TGI [20]: 1320 nM
- TGI [21]: 1640 nM
- TGI [45]: 1020 nM
- TGI [22]: 1130 nM
- TGI [55]: 2720 nM
- TGI [46]: 3480 nM
- TGI [23]: 1590 nM
- TGI [47]: 3020 nM
- TGI [56]: 37800 nM
- TGI [24]: 3110 nM
- TGI [57]: 10900 nM
- TGI [48]: 14700 nM
- TGI [63]: 5740 nM
- TGI [49]: 6660 nM
- TGI [50]: 1600 nM
- TGI [25]: 10200 nM
- TGI [51]: 933 nM
- TGI [26]: 2450 nM
- TGI [52]: 5320 nM
